Tests used:
[1] = biological target: T1, TDO (A172) (Homo sapiens, UniProt P48775); test: A172 Kynurenine cell based assay; conditions: A172 human glioblastoma cells expressing TDO; kynurenine production, 48 hours
T1 construct: This assay utilised cancer cells which expressed either TDO (A172) or IDO (SKOV3); endogenous in cells; host or cells: A172 (human glioblastoma)
Experimental: (§1) Exemplary compounds of the invention were prepared, and tested to determine their effect as TDO and/or IDO inhibitors. Two different assays were employed: 1. a cell-based assay for detecting the effect of test compounds on kynurenine production in two different cancer cell types. This assay utilised cancer cells which expressed either TDO (A172) or IDO (SKOV3) and as such was used as a means of testing compound activity at these two enzymes in a cell-based context. 2. a TDO and IDO biochemical coupled assay which utilised recombinantly produced and purified TDO and IDO enzymes in combination with the enzyme formamidase. This coupled enzyme system allowed conversion of N-formylkynurenine produced by TDO or IDO activity to kynurenine which was then quantified by fluorescence following addition of Erhlich's Reagent The protocols for these are set out below.
(§2) Cell Based Assay for Detection of Kynurenine Produced by TDO and/or IDO
A172 (human glioblastoma) and SKOV3 (human ovarian adenocarcinoma) cells were seeded in a 96 well plate at 30,000 or 40,000 cells per well respectively in phenol red-free RPMI supplemented with 10% FCS, 2 mM L-glutamine and 500 µM L-tryptophan. IDO expression was induced in the SKOV3 cells by the addition of 500 ng/ml IFN-γ. Cells were incubated at 37° C. with or without the addition of test compound. After 48 hours, the cells were removed by centrifugation and Erhlich's reagent was added to the supernatant. The Erhlich's reagent was incubated for 5 minutes before the absorbance was read at 490 nm.

[2] = biological target: T2, IDO (SKOV3) (Homo sapiens, UniProt P14902); test: SKOV3 Kynurenine cell based assay; conditions: SKOV3 human ovarian adenocarcinoma cells, IDO induced by IFN-γ; kynurenine production, 48 hours
T2 construct: IDO expression was induced in the SKOV3 cells by the addition of 500 ng/ml IFN-γ; endogenous in cells; host or cells: SKOV3 (human ovarian adenocarcinoma), IFN-γ induced
T2 sequence (P14902 whole entry): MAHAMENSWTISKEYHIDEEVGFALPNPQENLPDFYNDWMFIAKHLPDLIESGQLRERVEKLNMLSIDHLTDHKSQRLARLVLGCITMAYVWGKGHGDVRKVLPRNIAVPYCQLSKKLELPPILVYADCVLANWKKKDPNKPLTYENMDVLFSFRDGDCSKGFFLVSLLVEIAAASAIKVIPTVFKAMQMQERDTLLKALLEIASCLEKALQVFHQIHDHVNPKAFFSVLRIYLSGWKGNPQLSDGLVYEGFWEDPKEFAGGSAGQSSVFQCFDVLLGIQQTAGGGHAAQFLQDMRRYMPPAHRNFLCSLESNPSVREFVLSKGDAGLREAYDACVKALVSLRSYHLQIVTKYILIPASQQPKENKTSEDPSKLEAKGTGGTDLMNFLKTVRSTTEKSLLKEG
Experimental: as §1, §2
A172 (human glioblastoma) and SKOV3 (human ovarian adenocarcinoma) cells were seeded in a 96 well plate at 30,000 or 40,000 cells per well respectively in phenol red-free RPMI supplemented with 10% FCS, 2 mM L-glutamine and 500 µM L-tryptophan. IDO expression was induced in the SKOV3 cells by the addition of 500 ng/ml IFN-γ. Cells were incubated at 37° C. with or without the addition of test compound. After 48 hours, the cells were removed by centrifugation and Erhlich's reagent was added to the supernatant.

[3] = biological target: Recombinant human TDO (Homo sapiens, UniProt P48775); test: hTDO biochemical assay (coupled with formamidase); conditions: 330 μM L-tryptophan, coupled with kynurenine formamidase, fluorescence
Chain of Recombinant human TDO (P48775 whole entry): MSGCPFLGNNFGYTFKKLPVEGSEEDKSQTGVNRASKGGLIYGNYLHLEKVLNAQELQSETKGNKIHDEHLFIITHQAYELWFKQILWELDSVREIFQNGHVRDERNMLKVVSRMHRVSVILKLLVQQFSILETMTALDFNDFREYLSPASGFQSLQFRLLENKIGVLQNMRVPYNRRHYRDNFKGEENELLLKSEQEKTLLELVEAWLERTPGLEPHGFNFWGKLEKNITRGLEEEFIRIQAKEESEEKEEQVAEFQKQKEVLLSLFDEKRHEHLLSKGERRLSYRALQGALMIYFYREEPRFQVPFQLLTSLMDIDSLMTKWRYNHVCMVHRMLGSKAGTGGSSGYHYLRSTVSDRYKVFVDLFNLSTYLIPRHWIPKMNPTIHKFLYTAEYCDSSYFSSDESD
Experimental: as §1
(§3) TDO and IDO Biochemical Coupled Assay
(§4) Recombinant human IDO or TDO was incubated in 50 mM KPO4 (pH 7.0), 0.5 mM EGTA, 0.5 mM EDTA, 0.05% Triton™ X100, 20 mM ascorbate, […] methylene blue, 500 U/ml catalase, 50 μg/ml KynB (kynurenine formamidase). TDO assays were carried out in the presence of 330 μM L-tryptophan, while IDO assays had the addition of 45 µM L-tryptophan. After incubation for 17 minutes at room temperature the reactions were stopped by the addition of Erhlich's reagent and incubated at room temperature for 5 minutes before the fluorescence was read (Ex475, Em530).

[4] = biological target: Recombinant human IDO (Homo sapiens, UniProt P14902); test: hIDO biochemical assay (coupled with formamidase); conditions: coupled with kynurenine formamidase, fluorescence
Chain of Recombinant human IDO (P14902 whole entry): as the sequence (P14902 whole entry) above
Experimental: as §1, §3, §4

T1 sequence (P48775 whole entry): as the sequence (P48775 whole entry) above

Row | SMILES | A172 Kynurenine cell based assay pIC50 [1] | SKOV3 Kynurenine cell based assay pIC50 [2] | hTDO biochemical assay pIC50 [3] | hIDO biochemical assay pIC50 [4]
1 | Nc1oncc1-c1ccc(F)cc1 [Compound 1] | +++ (+++ = pIC50 ≥ 5.50) | ++ (++ = pIC50 4.50-5.49) | ++ (++ = pIC50 4.50-5.49) | ++ (++ = pIC50 4.50-5.49)
2 | Nc1noc(N)c1-c1cccc(Cl)c1 [Compound 5] | +++ (+++ = pIC50 ≥ 5.50) | ++ (++ = pIC50 4.50-5.49) | + (+ = pIC50 4.00-4.49) | ++ (++ = pIC50 4.50-5.49)
3 | Nc1oncc1-c1ccccc1 [Compound 7] | +++ (+++ = pIC50 ≥ 5.50) | ++ (++ = pIC50 4.50-5.49) | ++ (++ = pIC50 4.50-5.49) | ++ (++ = pIC50 4.50-5.49)
4 | Nc1oncc1-c1cccc(F)c1 [Compound 13] | +++ (+++ = pIC50 ≥ 5.50) | ++ (++ = pIC50 4.50-5.49) | + (+ = pIC50 4.00-4.49) | ++ (++ = pIC50 4.50-5.49)
5 | CC(=O)Nc1oncc1-c1ccccc1 [Compound 17] | ++ (++ = pIC50 4.50-5.49) | + (+ = pIC50 4.00-4.49) | + (+ = pIC50 4.00-4.49) | + (+ = pIC50 4.00-4.49)
6 | O=S(=O)(Nc1oncc1-c1ccccc1)c1ccccc1 [Compound 26] | + (+ = pIC50 4.00-4.49) | ++ (++ = pIC50 4.50-5.49) | +/− (+/− = pIC50 < 4.00) | +++ (+++ = pIC50 ≥ 5.50)
7 | CC(C)C(=O)Nc1oncc1-c1ccccc1 [Compound 34] | ++ (++ = pIC50 4.50-5.49) | ++ (++ = pIC50 4.50-5.49) | ++ (++ = pIC50 4.50-5.49) | ++ (++ = pIC50 4.50-5.49)
8 | O=C(Nc1oncc1-c1ccccc1)c1ccccc1 [Compound 49] | +++ (+++ = pIC50 ≥ 5.50) | ++ (++ = pIC50 4.50-5.49) | + (+ = pIC50 4.00-4.49) | +/− (+/− = pIC50 < 4.00)
9 | N#Cc1ccc(-c2cnoc2N)cc1 [Compound 50] | ++ (++ = pIC50 4.50-5.49) | ++ (++ = pIC50 4.50-5.49) |  | ++ (++ = pIC50 4.50-5.49)
10 | O=C(CO)Nc1oncc1-c1ccccc1 [Compound 63] | +++ (+++ = pIC50 ≥ 5.50) | ++ (++ = pIC50 4.50-5.49) | +/− (+/− = pIC50 < 4.00) | + (+ = pIC50 4.00-4.49)
11 | O=C(Nc1oncc1-c1ccccc1)C1CCCN1 (stereo not shown) [Compound 66] | ++ (++ = pIC50 4.50-5.49) | +/− (+/− = pIC50 < 4.00) |  | 
12 | Nc1oncc1-c1ccccc1[N+](=O)[O-] [Compound 67] | +/− (+/− = pIC50 < 4.00) | + (+ = pIC50 4.00-4.49) |  | 
13 | Nc1oncc1-c1ccccc1O [Compound 68] | ++ (++ = pIC50 4.50-5.49) | + (+ = pIC50 4.00-4.49) |  | 
14 | CN(C)CCC(=O)Nc1oncc1-c1ccccc1 [Compound 69] | +++ (+++ = pIC50 ≥ 5.50) | + (+ = pIC50 4.00-4.49) |  | 
15 | O=C(Nc1nnnn1-c1ccccc1)c1ccccc1 [Compound 70] | ++ (++ = pIC50 4.50-5.49) | ++ (++ = pIC50 4.50-5.49) |  | 
16 | CNCC(=O)Nc1oncc1-c1ccccc1 [Compound 71] | ++ (++ = pIC50 4.50-5.49) | + (+ = pIC50 4.00-4.49) |  | 
17 | CC(C)CS(=O)(=O)Nc1cncn1-c1ccccc1 [Compound 72] | +/− (+/− = pIC50 < 4.00) | + (+ = pIC50 4.00-4.49) |  | 
18 | NCC(=O)Nc1oncc1-c1ccccc1 [Compound 73] | +++ (+++ = pIC50 ≥ 5.50) | ++ (++ = pIC50 4.50-5.49) |  | 
19 | O=C(Nc1oncc1-c1ccccc1)C(O)C1CCCCC1 (stereo not shown) [Compound 74] | + (+ = pIC50 4.00-4.49) | + (+ = pIC50 4.00-4.49) |  | 
20 | CC(O)C(=O)Nc1oncc1-c1ccccc1 (stereo not shown) [Compound 75] | +++ (+++ = pIC50 ≥ 5.50) | + (+ = pIC50 4.00-4.49) | ++ (++ = pIC50 4.50-5.49) | ++ (++ = pIC50 4.50-5.49)
21 | O=C(Nc1oncc1-c1ccccc1)C(O)c1ccccc1 (stereo not shown) [Compound 76] | ++ (++ = pIC50 4.50-5.49) | + (+ = pIC50 4.00-4.49) |  | 
22 | O=C(Nc1cnoc1-c1ccccc1)c1ccccc1 [Compound 77] | +/− (+/− = pIC50 < 4.00) | + (+ = pIC50 4.00-4.49) |  | 
23 | Nc1oncc1-c1ccccc1CCO [Compound 78] | ++ (++ = pIC50 4.50-5.49) | + (+ = pIC50 4.00-4.49) |  | 
24 | O=S(=O)(Nc1cncn1-c1ccccc1)c1ccccc1 [Compound 79] | +/− (+/− = pIC50 < 4.00) | ++ (++ = pIC50 4.50-5.49) |  | 
25 | CC(C)CS(=O)(=O)Nc1cnoc1-c1ccccc1 [Compound 80] | +/− (+/− = pIC50 < 4.00) | + (+ = pIC50 4.00-4.49) | +/− (+/− = pIC50 < 4.00) | ++ (++ = pIC50 4.50-5.49)
26 | CC(N)C(=O)Nc1oncc1-c1ccccc1 (stereo not shown) [Compound 81] | +++ (+++ = pIC50 ≥ 5.50) | ++ (++ = pIC50 4.50-5.49) | +/− (+/− = pIC50 < 4.00) | + (+ = pIC50 4.00-4.49)
27 | NCCNc1oncc1-c1ccccc1 [Compound 82] | +++ (+++ = pIC50 ≥ 5.50) | + (+ = pIC50 4.00-4.49) |  | 
